Measurements as given in ChEMBL document CHEMBL6092203, “Discovery of Novel PROTAC-Based HPK1 Degraders with High Potency and Selectivity for Cancer Immunotherapy” (J Med Chem, 2024).
Calls of active or inactive are those of the source. No cut-off for these calls is given here.

How the values were obtained:
[1] = Drug distribution in rat lymph node measured after 0.5 to 6 hrs; assay type: ADME, tissue-based; conditions: in vivo, time 0.5-6 hrs
[2] = Drug metabolism in monkey hepatocytes assessed as phase 1 metabolites formation at 10 uM incubated for 120 mins by UHPLC-UV/MS/MS method; assay type: ADME, cell-based, Macaca mulatta, Hepatocyte; conditions: rhesus monkey, 2 h
[3] = Plasma protein binding in human at 10 uM incubated for 6 hrs by equilibrium dialysis based LC-MS/MS method; assay type: ADME, cell-free; conditions: read-out: PPB
in vivo [4] = conditions: female, Sprague-Dawley, rat, po, 30 mg/kg
[5] = Drug distribution in rat liver measured after 0.5 to 6 hrs; assay type: ADME, tissue-based; conditions: in vivo, time 0.5-6 hrs
in vivo [6] = conditions: female, Sprague-Dawley, rat, po, 100 mg/kg
[7] = Clearance in C57BL/6J mouse at 2 mg/kg, iv measured upto 24 hrs by LC-MS analysis; conditions: in vivo
Cytochrome P450 1A2 = target: T1, Cytochrome P450 1A2 (Homo sapiens, UniProt P05177); test: Inhibition of CYP1A2 in human liver microsomes using phenacetin as substrate in presence of NADPH; assay type: ADME, Microsome
T1 sequence (P05177 whole entry): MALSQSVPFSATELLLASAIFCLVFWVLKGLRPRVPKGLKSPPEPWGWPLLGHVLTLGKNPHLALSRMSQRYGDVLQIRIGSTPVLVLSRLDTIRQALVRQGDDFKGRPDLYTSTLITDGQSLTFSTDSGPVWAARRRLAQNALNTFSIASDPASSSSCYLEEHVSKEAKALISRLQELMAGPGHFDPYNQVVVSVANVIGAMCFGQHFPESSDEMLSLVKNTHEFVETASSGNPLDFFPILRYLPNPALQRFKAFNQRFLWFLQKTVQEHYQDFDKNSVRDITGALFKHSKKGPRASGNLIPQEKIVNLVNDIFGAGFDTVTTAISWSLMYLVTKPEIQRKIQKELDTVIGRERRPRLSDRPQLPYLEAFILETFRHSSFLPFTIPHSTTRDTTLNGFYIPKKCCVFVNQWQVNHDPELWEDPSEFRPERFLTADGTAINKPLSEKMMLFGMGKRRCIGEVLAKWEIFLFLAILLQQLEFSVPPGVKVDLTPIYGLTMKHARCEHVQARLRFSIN

[8] = AUCinfinity in Beagle dog at 1 mg/kg, iv measured upto 24 hrs by LC-MS analysis; assay type: ADME, organism-based, Canis lupus familiaris; conditions: in vivo
[9] = Plasma protein binding in mouse at 10 uM incubated for 6 hrs by equilibrium dialysis based LC-MS/MS method; assay type: ADME, cell-free; conditions: read-out: PPB (converted)
MC-38 [10] = test: Synergistic antitumor activity against mouse MC38 cells implanted in C57BL/6J mouse assessed as reduction in tumor volume at 0.5 mg/kg, po bid administered for 3 to 4 weeks in presence of 5 mg/kg anti-PD1 and measured twice a week (reference value: 1549.22 +/- 217.92 mm3); assay type: functional; conditions: time 3-4 weeks
[11] = Drug distribution in rat kidney measured after 0.5 to 6 hrs; assay type: ADME, tissue-based; conditions: in vivo, time 0.5-6 hrs
[12] = Apparent permeability across apical to basolateral side in human Caco-2 cells at 10 uM incubated for 2 hrs by LC-MS/MS analysis; assay type: ADME, cell-based
MC-38 [13] = test: Synergistic antitumor activity against mouse MC38 cells implanted in C57BL/6J mouse assessed as tumor weight inhibition rate at 100 mg/kg, po QD measured after 4 weeks in presence of 5 mg/kg anti-PD1 and measured twice a week; assay type: functional; parameters: scale not given: the % may be the effect or the level left
[14] = target: T2, Protein cereblon/Mitogen-activated protein kinase kinase kinase kinase 1 (Homo sapiens, UniProt Q92918+Q96SW2); test: PROTAC activity at CRBN/HPK1 in human Jurkat cells assessed as HPK1 degradation at 0.01 uM measured after 24 hrs by Western blotting analysis; assay type: cell-based
[15] = Drug absorption in rat at 10 to 100 mg/kg, po; assay type: ADME, organism-based; conditions: in vivo, dose 10-100 mg/kg
[16] = Half-life in Sprague-Dawley rat at 1 mg/kg, po measured upto 24 hrs by LC-MS analysis; conditions: in vivo
Jurkat = test: Effect on SLP76 total protein expression in human Jurkat cells at 1 to 2000 nM incubated for 24 hrs by Western blotting assay; assay type: functional, cell-based; conditions: dose 1-2000 nM
MC-38 [17] = test: Synergistic antitumor activity against mouse MC38 cells implanted in C57BL/6J mouse assessed as reduction in tumor volume at 100 mg/kg, po QD administered for 3 to 4 weeks in presence of 5 mg/kg anti-PD1 and measured twice a week (reference value: 1549.22 +/- 217.92 mm3); assay type: functional; conditions: time 3-4 weeks
in vivo [18] = conditions: male, Sprague-Dawley, rat, po, 30 mg/kg
MC-38 [19] = test: Antitumor activity against mouse MC38 cells implanted in C57BL/6J mouse assessed as tumor growth inhibition at 0.5 mg/kg, po BID measured after 4 weeks; assay type: functional; conditions: MC-38, 672 h, read-out: TGI
[20] = target: T2, Protein cereblon/Mitogen-activated protein kinase kinase kinase kinase 1; test: PROTAC activity at CRBN/HPK1 in human Jurkat cells assessed as HPK1 degradation at 1 uM measured after 24 hrs by Western blotting analysis; assay type: cell-based
[21] = target: T2, Protein cereblon/Mitogen-activated protein kinase kinase kinase kinase 1; test: PROTAC activity at CRBN/HPK1 in human Jurkat cells assessed as HPK1 degradation at 1 uM pretreated with lenalidomide for 4 hrs followed by compound addition and measured after 24 hrs by Western blotting analysis; assay type: cell-based
[22] = Half-life in C57BL/6J mouse at 10 mg/kg, po measured upto 24 hrs by LC-MS analysis; conditions: in vivo
MC-38 [23] = test: Synergistic antitumor activity against mouse MC38 cells implanted in C57BL/6J mouse assessed as tumor growth inhibition at 0.1 mg/kg, po bid measured after 4 weeks in presence of 5 mg/kg anti-PD1 and measured twice a week; assay type: functional; conditions: MC-38, 672 h, read-out: TGI
in vivo [24] = conditions: female, Sprague-Dawley, rat, po, 2 mg/kg
MC-38 [25] = test: Antitumor activity against mouse MC38 cells implanted in C57BL/6J mouse assessed as tumor growth inhibition at 100 mg/kg, po QD administered for 4 weeks; assay type: functional; conditions: MC-38, 672 h, read-out: TGI
[26] = Half-life in Beagle dog at 1 mg/kg, iv measured upto 24 hrs by LC-MS analysis; conditions: in vivo
[27] = Clearance in mouse at 2 mg/kg, iv measured upto 24 hrs by LC-MS analysis; assay type: ADME, organism-based; conditions: in vivo
[28] = Drug metabolism in dog hepatocytes assessed as phase 1 metabolites formation at 10 uM incubated for 120 mins by UHPLC-UV/MS/MS method; assay type: ADME, cell-based, Canis lupus familiaris, Hepatocyte; conditions: 2 h
[29] = Half-life in Beagle dog at 5 mg/kg, po measured upto 24 hrs by LC-MS analysis; conditions: in vivo
[30] = Apparent volume of distribution in mouse at 2 mg/kg, iv measured upto 24 hrs by LC-MS analysis; assay type: ADME, organism-based; conditions: in vivo
[31] = Metabolic stability in rat liver microsomes assessed as intrinsic clearance at 1 uM incubated for 45 mins by LC-MS/MS method; assay type: ADME, Microsome; conditions: read-out: CLH
in vivo [32] = conditions: female, Sprague-Dawley, rat, po, 2 mg/kg; remark: listed apart in the source
[33] = Metabolic stability in monkey hepatocytes assessed as intrinsic clearance at 1 uM incubated for 90 mins by LC-MS/MS method; assay type: ADME, cell-based, Macaca mulatta, Hepatocyte; conditions: rhesus monkey, 1.5 h

T2 sequence (Q92918 whole entry, looked up): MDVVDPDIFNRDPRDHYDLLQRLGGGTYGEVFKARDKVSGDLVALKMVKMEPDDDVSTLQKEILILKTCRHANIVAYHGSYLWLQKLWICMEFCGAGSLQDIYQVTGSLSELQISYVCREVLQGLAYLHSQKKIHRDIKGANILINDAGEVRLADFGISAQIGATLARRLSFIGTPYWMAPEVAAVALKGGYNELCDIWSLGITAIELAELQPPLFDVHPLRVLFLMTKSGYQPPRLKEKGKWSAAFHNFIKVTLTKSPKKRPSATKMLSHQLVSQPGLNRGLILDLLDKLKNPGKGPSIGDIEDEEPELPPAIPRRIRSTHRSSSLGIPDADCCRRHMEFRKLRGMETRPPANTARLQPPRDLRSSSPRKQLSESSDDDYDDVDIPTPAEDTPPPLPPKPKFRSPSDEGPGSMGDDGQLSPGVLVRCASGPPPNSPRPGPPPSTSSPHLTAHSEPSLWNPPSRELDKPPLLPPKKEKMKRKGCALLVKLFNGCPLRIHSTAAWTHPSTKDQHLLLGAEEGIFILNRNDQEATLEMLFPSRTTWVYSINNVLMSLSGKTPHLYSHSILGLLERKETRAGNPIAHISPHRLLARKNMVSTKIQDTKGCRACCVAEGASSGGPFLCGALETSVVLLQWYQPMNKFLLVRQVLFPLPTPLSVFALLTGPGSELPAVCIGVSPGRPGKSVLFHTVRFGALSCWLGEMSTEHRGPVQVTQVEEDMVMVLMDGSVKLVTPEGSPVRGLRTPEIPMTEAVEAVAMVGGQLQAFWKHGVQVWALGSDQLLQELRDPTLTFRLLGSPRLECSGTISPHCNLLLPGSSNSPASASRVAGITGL
T2 sequence (Q96SW2 whole entry, looked up): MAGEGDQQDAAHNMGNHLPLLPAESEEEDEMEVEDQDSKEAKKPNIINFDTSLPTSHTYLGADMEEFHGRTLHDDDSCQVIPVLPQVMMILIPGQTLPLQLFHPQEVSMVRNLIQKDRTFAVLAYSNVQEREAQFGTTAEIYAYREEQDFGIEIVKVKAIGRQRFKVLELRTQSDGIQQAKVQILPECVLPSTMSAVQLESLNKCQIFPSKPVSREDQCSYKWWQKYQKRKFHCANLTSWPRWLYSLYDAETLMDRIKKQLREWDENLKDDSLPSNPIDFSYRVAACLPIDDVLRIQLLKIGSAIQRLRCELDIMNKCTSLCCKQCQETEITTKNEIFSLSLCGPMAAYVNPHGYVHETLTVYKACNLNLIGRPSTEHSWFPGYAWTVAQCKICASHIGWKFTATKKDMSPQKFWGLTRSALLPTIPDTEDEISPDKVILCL

**Q.** For `O=C1CCN(c2cc(C(=O)N3CCC(CC4CCN(c5ccc(-c6cnc7[nH]cc(-c8cnn(CC(F)(F)F)c8)c7n6)cn5)CC4)CC3)ccc2Cl)C(=O)N1`, which Drug uptake [1] is on record?
**A.** Active

**Q.** What about the Drug metabolism [2] of the same compound?
**A.** metabolite_detected

**Q.** And the fraction unbound at 6 h, 10 µM [3]?
**A.** 0.001

**Q.** What about the Cmax at 336 h (in vivo [4]) of the same compound?
**A.** 4210 ng/mL

**Q.** What about the Drug uptake [5] of the same compound?
**A.** Active

**Q.** What about the AUC at 336 h (in vivo [6]) of the same compound?
**A.** 121 µg·h/mL

**Q.** And the clearance at 24 h [7]?
**A.** 6 mL/min/kg

**Q.** And the IC50 (Cytochrome P450 1A2)?
**A.** > 10 µM

**Q.** And the AUC(0-inf) [8]?
**A.** 996 ng·h/mL

**Q.** And the fraction unbound at 6 h, 10 µM [9]?
**A.** 0.0025

**Q.** And the Activity (MC-38 [10])?
**A.** 139.36 mm3

**Q.** What about the Drug uptake [11] of the same compound?
**A.** Active

**Q.** What about the Papp A→B at 2 h, 10 µM [12] of the same compound?
**A.** 0.16 ×10⁻⁶ cm/s

**Q.** What about the Activity (MC-38 [13]) of the same compound?
**A.** 83.04%

**Q.** What about the Activity [14] of the same compound?
**A.** Active

**Q.** And the Drug absorption [15]?
**A.** Active

**Q.** What about the half-life at 24 h [16] of the same compound?
**A.** 309 min

**Q.** What about the Activity (Jurkat) of the same compound?
**A.** inactive

**Q.** And the Activity (MC-38 [17])?
**A.** 139.92 mm3

**Q.** What about the Cmax at 24 h (in vivo [18]) of the same compound?
**A.** 3560 ng/mL

**Q.** And the inhibition in vivo at 0.5 mg/kg (MC-38 [19])?
**A.** 51.4%

**Q.** What about the Activity [20] of the same compound?
**A.** Active

**Q.** And the Activity [21]?
**A.** inactive

**Q.** And the half-life at 24 h [22]?
**A.** 206 min

**Q.** And the inhibition in vivo at 0.1 mg/kg (MC-38 [23])?
**A.** 39.7%

**Q.** What about the Cmax at 24 h (in vivo [24]) of the same compound?
**A.** 63.9 ng/mL

**Q.** And the inhibition in vivo at 100 mg/kg (MC-38 [25])?
**A.** 56.9%

**Q.** And the half-life at 24 h [26]?
**A.** 292 min

**Q.** And the clearance [27]?
**A.** 0.598 mL/min/kg

**Q.** What about the Drug metabolism [28] of the same compound?
**A.** metabolite_detected

**Q.** What about the half-life at 24 h [29] of the same compound?
**A.** 254 min

**Q.** And the Vz [30]?
**A.** 121 mL/kg

**Q.** And the microsomal CLint at 1 µM [31]?
**A.** 5.62 µL/min/mg

**Q.** And the Cmax at 336 h (in vivo [32])?
**A.** 140 ng/mL

**Q.** And the CLH [33]?
**A.** 8.85 µL/min/mg
